Measurements: patent US11339165B2, “Pyrazolopyrimidines having activity against the respiratory syncytial virus (RSV)” (priority 2017, dated 2022)

Key:
rgRSV224 virus = assay: Antiviral activity: rgRSV224 (GFP) replication in HeLa cells; assay type: cell-based, respiratory syncytial virus (RSV); settings: human respiratory syncytial virus, HeLa, 72 h, read-out: RSV HELA EC50 (μM), rgRSV224 virus (MOI=1), HeLa cells, GFP expression three days post-virus exposure
in vitro = settings: human, TOX HELA CC50 (μM)

Structure (SMILES)	EC50 (rgRSV224 virus)	CC50 at 3 days (in vitro)
C[C@@H]1c2ccsc2CCN1C(=O)c1cc(C2CC2)n2nc(-c3ccc(N4CC[C@](C)(CC(N)=O)C4)cc3F)cc2n1 (single isomer, unassigned) [Compound 25, 2-[(3*R)-1-(4-{7-Cyclopropyl-5-[(4*R)-4-methyl-4,5,6,7-tetrahydro-thieno[3,2-c]pyridine-5-carbonyl]pyrazolo[1,5-a]pyrimidin-2-yl}-3-fluorophenyl)-3-methylpyrrolidin-3-yl]acetamide]	0.023 µM	29.6 µM
C[C@@H]1c2ccccc2CCN1C(=O)c1cc(C2CC2)n2nc(-c3ccc(N4CCCC(CC(N)=O)C4)cc3F)cc2n1 (stereo partly drawn) [Compound 71, 2-[1-(4-{7-Cyclopropyl-5-[(1R)-1-methyl-1,2,3,4-tetrahydroisoquinoline-2-carbonyl]-pyrazolo[1,5-a]pyrimidin-2-yl}-3-fluorophenyl)piperidin-3-yl]acetamide]	0.105 µM	29.8 µM
C[C@@H]1c2ccccc2CCN1C(=O)c1cc(C2CC2)n2nc(-c3ccc(N4C[C@@H](O)[C@H](O)C4)cc3F)cc2n1 [Compound 100, (7-cyclopropyl-2-(4-((3R,4R)-3,4-dihydroxypyrrolidin-1-yl)-2-fluorophenyl)pyrazolo[1,5-a]pyrimidin-5-yl)((R)-1-methyl-3,4-dihydroisoquinolin-2(1H)-yl)methanone]	0.011 µM	23.8 µM
C[C@@H]1c2ccccc2CCN1C(=O)c1cc(C2CC2)n2nc(-c3ccc(N4C[C@H](O)[C@H](O)[C@H]4CO)cc3F)cc2n1 [Compound 98]	0.039 µM	47.6 µM
C[C@@H]1c2ccccc2CCN1C(=O)c1cc(C2CC2)n2nc(-c3ccc(N4CC[C@@H](O)C4)cc3F)cc2n1 [Compound 13, (3R)-1-(4-{7-Cyclopropyl-5-[(1R)-1-methyl-1,2,3,4-tetrahydroisoquinoline-2-carbonyl]pyrazolo[1,5-a]pyrimidin-2-yl}-3-fluorophenyl)pyrrolidin-3-ol]	0.058 µM	80.5 µM
C[C@@H]1c2ccccc2CCN1C(=O)c1cc(C2CC2)n2nc(-c3ccc(N4CC[C@H](C(=O)NC#N)C4)cc3F)cc2n1 [Compound 39, (3S)—N-Cyano-1-(4-{7-cyclopropyl-5-[(1R)-1-methyl-1,2,3,4-tetrahydroisoquinoline-2-carbonyl]pyrazolo[1,5-a]pyrimidin-2-yl}-3-fluorophenyl)pyrrolidine-3-carboxamide]	0.291 µM	53.1 µM
CNS(=O)(=O)C1CCN(c2ccc(-c3cc4nc(C(=O)N5CCc6ccccc6[C@H]5C)cc(C5CC5)n4n3)c(F)c2)C1 (stereo partly drawn) [Compound 21, 1-(4-{7-Cyclopropyl-5-[(1R)-1-methyl-1,2,3,4-tetrahydroisoquinoline-2-carbonyl]-pyrazolo[1,5-a]pyrimidin-2-yl}-3-fluorophenyl)-N-methylpyrrolidine-3-sulfonamide]	0.045 µM	> 100 µM
C[C@@H]1c2ccccc2CCN1C(=O)c1cc(C2CC2)n2nc(-c3ccc(N4C[C@H](O)C(F)(F)C4)cc3F)cc2n1 [Compound 97, (7-cyclopropyl-2-(4-((S)-3,3-difluoro-4-hydroxypyrrolidin-1-yl)-2-fluorophenyl)pyrazolo[1,5-a]pyrimidin-5-yl)((R)-1-methyl-3,4-dihydroisoquinolin-2(1H)-yl)methanone]	0.053 µM	26.1 µM
C[C@@H]1c2ccccc2CCN1C(=O)c1cc(C2CC2)n2nc(-c3ccc(N4CC[C@H](C(=O)NS(C)(=O)=O)C4)cc3F)cc2n1 [Compound 40, (3S)-1-(4-{7-Cyclopropyl-5-[(1R)-1-methyl-1,2,3,4-tetrahydroisoquinoline-2-carbonyl]-pyrazolo[1,5-a]pyrimidin-2-yl}-3-fluorophenyl)-N-methanesulfonylpyrrolidine-3-carboxamide]	0.061 µM	52.3 µM
Cc1ccc(-c2cc(C(=O)N3CCc4ccccc4[C@H]3C)nc3cc(-c4ccc(N5CC[C@H](C(N)=O)C5)cc4F)nn23)cc1 [Compound 58, (3S)-1-(3-Fluoro-4-{5-[(1R)-1-methyl-1,2,3,4-tetrahydroisoquinoline-2-carbonyl]-7-(4-methylphenyl)pyrazolo[1,5-a]pyrimidin-2-yl}phenyl)pyrrolidine-3-carboxamide]	0.036 µM	> 100 µM
CNC(=O)[C@H]1CCN(c2ccc(-c3cc4nc(C(=O)N5CCc6ccccc6[C@H]5C)cc(C5CC5)n4n3)c(F)n2)C1 [Compound 50, (3S)-1-(5-{7-Cyclopropyl-5-[(1R)-1-methyl-1,2,3,4-tetrahydroisoquinoline-2-carbonyl]-pyrazolo[1,5-a]pyrimidin-2-yl}-6-fluoropyridin-2-yl)-N-methylpyrrolidine-3-carboxamide]	0.031 µM	35.1 µM
C[C@@H]1c2ccccc2CCN1C(=O)c1cc(C2CC2)n2nc(-c3ccc(N4CC[C@H](C(N)=S)C4)cc3F)cc2n1 [Compound 101, (S)-1-(4-(7-cyclopropyl-5-((R)-1-methyl-1,2,3,4-tetrahydroisoquinoline-2-carbonyl)pyrazolo[1,5-a]pyrimidin-2-yl)-3-fluorophenyl)pyrrolidine-3-carbothioamide]	0.058 µM	45.4 µM
C[C@@H]1c2ccccc2CCN1C(=O)c1cc(C2CC2)n2nc(-c3ccc(N4C[C@@H](O)[C@@H](O)C4)cc3F)cc2n1 [Compound 95, (7-cyclopropyl-2-(4-((3R,4S)-3,4-dihydroxypyrrolidin-1-yl)-2-fluorophenyl)pyrazolo[1,5-a]pyrimidin-5-yl)((R)-1-methyl-3,4-dihydroisoquinolin-2(1H)-yl)methanone]	0.018 µM	31.1 µM
C[C@@H]1c2ccccc2CCN1C(=O)c1cc(C2CC2)n2nc(-c3ccc(N4CC[C@H](C(=O)N(C)C)C4)cc3F)cc2n1 [Compound 38, (3S)-1-(4-{7-Cyclopropyl-5-[(1R)-1-methyl-1,2,3,4-tetrahydroisoquinoline-2-carbonyl]-pyrazolo[1,5-a]pyrimidin-2-yl}-3-fluorophenyl)-N,N-dimethylpyrrolidine-3-carboxamide]	0.043 µM	> 100 µM
C[C@@H]1c2ccccc2CCN1C(=O)c1cc(-c2ccccc2)n2nc(-c3ccc(N4CC[C@H](C(N)=O)C4)cc3F)cc2n1 [Compound 56, (3S)-1-(3-Fluoro-4-{5-[(1R)-1-methyl-1,2,3,4-tetrahydroisoquinoline-2-carbonyl]-7-phenylpyrazolo[1,5-a]pyrimidin-2-yl}phenyl)pyrrolidine-3-carboxamide]	0.032 µM	58.9 µM
CC(=O)NS(=O)(=O)C1CCN(c2ccc(-c3cc4nc(C(=O)N5CCc6ccccc6[C@H]5C)cc(C5CC5)n4n3)c(F)c2)C1 (stereo partly drawn) [Compound 20, N-{[1-(4-{7-Cyclopropyl-5-[(1R)-1-methyl-1,2,3,4-tetrahydroisoquinoline-2-carbonyl]-pyrazolo[1,5-a]pyrimidin-2-yl}-3-fluorophenyl)pyrrolidin-3-yl]sulfonyl}acetamide]	0.052 µM	55.9 µM
C[C@@H]1c2ccccc2CCN1C(=O)c1cc(C2CC2)n2nc(-c3ccc(N4CC[C@H](S(C)(=O)=O)C4)cc3F)cc2n1 [Compound 18, (1R)-2-(7-Cyclopropyl-2-{2-fluoro-4-[(3S)-3-methanesulfonylpyrrolidin-1-yl]phenyl}-pyrazolo[1,5-a]pyrimidine-5-carbonyl)-1-methyl-1,2,3,4-tetrahydroisoquinoline]	0.044 µM	> 100 µM
C[C@@H]1c2ccccc2CCN1C(=O)c1cc(-c2ccncc2)n2nc(-c3ccc(N4CC[C@H](C(N)=O)C4)cc3F)cc2n1 [Compound 63, (3S)-1-(3-Fluoro-4-{5-[(1R)-1-methyl-1,2,3,4-tetrahydroisoquinoline-2-carbonyl]-7-(pyridin-4-yl)pyrazolo[1,5-a]pyrimidin-2-yl}phenyl)pyrrolidine-3-carboxamide]	0.011 µM	27.2 µM
C[C@@H]1c2ccccc2CCN1C(=O)c1cc(C2CC2)n2nc(-c3ncc(N4CC[C@H](C(N)=O)C4)nc3F)cc2n1 [Compound 88, (3S)-1-(5-{7-Cyclopropyl-5-[(1R)-1-methyl-1,2,3,4-tetrahydroisoquinoline-2-carbonyl]-pyrazolo[1,5-a]pyrimidin-2-yl}-6-fluoropyrazin-2-yl)pyrrolidine-3-carboxamide]	0.017 µM	47.6 µM
C[C@@H]1c2ccccc2CCN1C(=O)c1cc(C2CC2)n2nc(-c3ccc(N4C[C@@H](O)[C@@H](F)C4)cc3F)cc2n1 (relative stereo) [Compound 107, (7-cyclopropyl-2-(2-fluoro-4-(cis-3-fluoro-4-hydroxypyrrolidin-1-yl)phenyl)pyrazolo[1,5-a]pyrimidin-5-yl)((R)-1-methyl-3,4-dihydroisoquinolin-2(1H)-yl)methanone]	0.017 µM	21.2 µM
C[C@@H]1c2ccsc2CCN1C(=O)c1cc(C2CC2)n2nc(-c3ccc(N4CC[C@@](C)(CC(N)=O)C4)cc3F)cc2n1 (single isomer, unassigned) [Compound 26, 2-[(3*S)-1-(4-{7-Cyclopropyl-5-[(4*R)-4-methyl-4,5,6,7-tetrahydro-thieno[3,2-c]pyridine-5-carbonyl]pyrazolo[1,5-a]pyrimidin-2-yl}-3-fluorophenyl)-3-methylpyrrolidin-3-yl]acetamide]	0.02 µM	29.6 µM
C[C@@H]1c2ccccc2CCN1C(=O)c1cc(-c2ccc(F)cc2)n2nc(-c3ccc(N4CC[C@H](C(N)=O)C4)cc3F)cc2n1 [Compound 60, (3S)-1-{3-Fluoro-4-[7-(4-fluorophenyl)-5-[(1R)-1-methyl-1,2,3,4-tetrahydroisoquinoline-2-carbonyl]pyrazolo[1,5-a]pyrimidin-2-yl]phenyl}pyrrolidine-3-carboxamide]	0.029 µM	41.3 µM
C[C@@H]1c2ccccc2CCN1C(=O)c1cc(-c2ccc(Cl)cc2)n2nc(-c3ccc(N4CC[C@H](C(N)=O)C4)cc3F)cc2n1 [Compound 59, (3S)-1-{4-[7-(4-Chlorophenyl)-5-[(1R)-1-methyl-1,2,3,4-tetrahydroisoquinoline-2-carbonyl]pyrazolo[1,5-a]pyrimidin-2-yl]-3-fluorophenyl}pyrrolidine-3-carboxamide]	0.047 µM	
